Source: US8183262B2, “Pyridine derivatives as mGluR2 antagonists” (Hoffmann-La Roche Inc., priority 2007, dated 2012)

Assays:
rat mGlu2 receptor = target: T1, rat mGlu2 receptor (Rattus norvegicus, UniProt P31421); experiment: [3H]-LY354740 binding on mGlu2 transfected CHO cell membranes; details: inhibition of 10 nM [3H]-LY354740 binding, membranes of CHO cells transfected with rat mGlu2, room temperature, 1 hour
T1 construct: expressed in transfected cells; membranes prepared
Excerpt: [^3H]-LY354740 Binding on mGlu2 Transfected CHO Cell Membranes. Transfection and Cell Culture
cDNA encoding the rat mGlu2 receptor protein in pBluescript II was subcloned into the eukaryotic expression vector pcDNA I-amp from Invitrogen Ltd (Paisley, UK). This vector construct (pcD1mGR2) was co-transfected with a psvNeo plasmid encoding the gene for neomycin resistance, into CHO cells by a modified calcium phosphate method described by Chen & Okayama (1988). The cells were maintained in Dulbecco's Modified Eagle medium with reduced L-glutamine (1 mM final concentration), 36 mg/L L-Proline and 10% dialysed foetal calf serum from Gibco-Invitrogen; the medium was supplemented with 500 microM α-methyl-4-carboxyphenylglycine (MCPG). Selection was made in the presence of G-418 (300 ug/ml final concentration). Clones were identified by reverse transcription of 5 μg total RNA, followed by PCR using mGlu2 receptor specific primers 5′-[…]-3′ and 5′-[…]-3′ in 60 mM Tris HCl (pH 10), 15 mM (NH4)2SO4, 2 mM MgCl2, 25 units/ml Taq Polymerase with 30 cycles annealing at 60° C. for 1 min., extention at 72° C. for 30 s, and 1 min. 95° C. denaturation.
Cells, cultured as above, were harvested and washed three times with cold PBS and frozen at −80° C. The pellet was resuspended in cold 20 mM HEPES-NaOH buffer containing 10 mM EDTA (pH 7.4), and homogenised with a polytron (Kinematica, A G, Littau, Switzerland) for 10 s at 10 000 rpm. After centrifugation for 30 min. at 4° C., the pellet was washed once with cold 20 mM HEPES-NaOH buffer containing 0.1 mM EDTA, (pH 7.4). After a second centrifugation for 30 min. at 4° C. the pellet was resuspended in cold 20 mM HEPES-NaOH buffer containing 0.1 mM EDTA, (pH 7.4). Protein content was measured using the Micro BCA method from Pierce-Perbio (Rockford, Ill., USA) using bovine serum albumin as standard.
After thawing, the membranes were resuspended in cold 50 mM Tris-HCl buffer containing 2 mM MgCl2 (pH 7.4) (binding buffer). The final concentration of the membranes in the assays was 25 μg protein/ml. Inhibition experiments were performed with membranes incubated with 10 nM [^3H]-LY354740 at room temperature, for 1 hour, in presence of various concentrations of the compound to be tested. Following the incubations, membranes were filtered onto Whatmann GF/B glass fiber filters or onto GF/B Unifilter plates and washed 5 times with cold binding buffer. Non specific binding was measured in the presence of 10 μM (2S,2′R,3′R)-2-(2′3′-Dicarboxycyclopropyl)glycine (DCG IV from Tocris, Ellisville, Mo. USA). After transfer of the filters into plastic vials containing 10 ml of Ultima-gold scintillation fluid from Perkin-Elmer (Boston, Mass., USA), the radioactivity was measured by liquid scintillation in a Tri-Carb 2500 TR counter (Packard, Zürich, Switzerland). For 96-Unifilter plates the radioactivity was measured after addition of Microscint 40 scintillation fluid (Perkin Elmer, Boston Mass.) using a TopCount NXT (Packard)
The inhibition curves were fitted with a four parameter logistic equation giving IC50 values, and Hill coefficients.

T1 sequence (P31421 19-872): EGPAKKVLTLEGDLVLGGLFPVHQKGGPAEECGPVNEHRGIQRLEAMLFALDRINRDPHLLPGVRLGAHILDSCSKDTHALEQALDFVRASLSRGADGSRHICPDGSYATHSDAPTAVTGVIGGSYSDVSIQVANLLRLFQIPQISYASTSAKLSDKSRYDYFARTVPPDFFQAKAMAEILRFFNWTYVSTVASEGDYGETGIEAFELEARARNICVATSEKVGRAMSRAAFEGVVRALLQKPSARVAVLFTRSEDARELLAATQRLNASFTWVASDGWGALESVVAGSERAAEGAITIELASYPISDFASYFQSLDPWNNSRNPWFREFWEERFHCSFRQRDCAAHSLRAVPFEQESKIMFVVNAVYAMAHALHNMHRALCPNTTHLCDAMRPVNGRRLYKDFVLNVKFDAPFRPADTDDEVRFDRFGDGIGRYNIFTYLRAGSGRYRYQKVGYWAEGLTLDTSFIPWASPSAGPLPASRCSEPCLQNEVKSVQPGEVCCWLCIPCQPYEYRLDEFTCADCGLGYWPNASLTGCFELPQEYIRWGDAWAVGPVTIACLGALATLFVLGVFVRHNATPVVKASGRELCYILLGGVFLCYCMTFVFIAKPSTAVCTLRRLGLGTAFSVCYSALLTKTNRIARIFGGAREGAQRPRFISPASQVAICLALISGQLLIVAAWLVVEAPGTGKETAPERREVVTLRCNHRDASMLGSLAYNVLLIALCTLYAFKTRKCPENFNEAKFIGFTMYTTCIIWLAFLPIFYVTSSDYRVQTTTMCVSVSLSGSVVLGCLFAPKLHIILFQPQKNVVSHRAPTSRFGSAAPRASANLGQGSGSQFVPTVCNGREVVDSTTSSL

SMILES: FC(F)(F)c1ccc(-c2cc(C(F)(F)F)nc(-n3cnc(-c4cccnc4)c3)n2)cc1 [Example 5, 2-(4-Pyridin-3-yl-imidazol-1-yl)-4-trifluoromethyl-6-(4-trifluoromethyl-phenyl)-pyrimidine]
- melting point: 200.5 °C
- Ki (rat mGlu2 receptor): 47 nM

SMILES: Nc1cc(-c2noc(-c3nc(-c4ccc(Cl)cc4)cc(C(F)(F)F)n3)n2)ccn1 [Example 8, 4-{5-[4-(4-Chloro-phenyl)-6-trifluoromethyl-pyrimidin-2-yl]-[1,2,4]oxadiazol-3-yl}-pyridin-2-ylamine]
- melting point: 223.5 °C
- Ki (rat mGlu2 receptor): 100 nM

SMILES: NS(=O)(=O)c1cccc(-c2nc(-c3nc(-c4ccc(C(F)(F)F)cc4)cc(C(F)(F)F)n3)no2)c1 [Example 10, 3-{3-[4-Trifluoromethyl-6-(4-trifluoromethyl-phenyl)-pyrimidin-2-yl]-[1,2,4]oxadiazol-5-yl}-benzenesulfonamide]
- melting point: 205 °C
- Ki (rat mGlu2 receptor): 25 nM

SMILES: Nc1ccc(-c2noc(-c3nc(-c4ccc(C(F)(F)F)cc4)cc(C(F)(F)F)n3)n2)cn1 [Example 11, 5-{5-[4-Trifluoromethyl-6-(4-trifluoromethyl-phenyl)-pyrimidin-2-yl]-[1,2,4]oxadiazol-3-yl}-pyridin-2-ylamine]
- melting point: 218.5 °C
- Ki (rat mGlu2 receptor): 21.6 nM

SMILES: Nc1ccc(-c2cccc(-c3nc(-c4ccc(C(F)(F)F)cc4)cc(C(F)(F)F)n3)c2)cn1 [Example 26, 5-{3-[4-Trifluoromethyl-6-(4-trifluoromethyl-phenyl)-pyrimidin-2-yl]-phenyl}-pyridin-2-ylamine]
- melting point: 205 °C
- Ki (rat mGlu2 receptor): 14 nM

SMILES: FC(F)(F)c1ccc(-c2cc(C(F)(F)F)nc(-c3cccc(-c4cccnc4)c3)n2)cc1 [Example 33, 2-(3-Pyridin-3-yl-phenyl)-4-trifluoromethyl-6-(4-trifluoromethyl-phenyl)-pyrimidine]
- melting point: 194 °C
- Ki (rat mGlu2 receptor): 17 nM

SMILES: FC(F)(F)c1cc(-c2ccc(Cl)cc2)nc(-c2cccc(-c3cccnc3)c2)n1 [Example 34, 4-(4-Chloro-phenyl)-2-(3-pyridin-3-yl-phenyl)-6-trifluoromethyl-pyrimidine]
- melting point: 162 °C
- Ki (rat mGlu2 receptor): 47 nM

SMILES: NS(=O)(=O)c1ccc(-c2noc(-c3nc(-c4ccc(C(F)(F)F)cc4)cc(C(F)F)n3)n2)cc1 [Example 35, 4-{5-[4-Difluoromethyl-6-(4-trifluoromethyl-phenyl)-pyrimidin-2-yl]-[1,2,4]oxadiazol-3-yl}-benzenesulfonamide]
- melting point: 307 °C
- Ki (rat mGlu2 receptor): 31 nM

SMILES: FC(F)(F)c1ccc(-c2cc(C(F)(F)F)nc(-c3ccncc3)n2)cc1 [Example 39, 2-Pyridin-4-yl-4-trifluoromethyl-6-(4-trifluoromethyl-phenyl)-pyrimidine]
- melting point: 153.5 °C
- Ki (rat mGlu2 receptor): 39.5 nM

SMILES: Cc1cc(-c2cccc(-c3nc(-c4ccc(C(F)(F)F)cc4)cc(C(F)(F)F)n3)c2)cc(C)n1 [Example 42, 2-[3-(2,6-Dimethyl-pyridin-4-yl)-phenyl]-4-trifluoromethyl-6-(4-trifluoromethyl-phenyl)-pyrimidine]
- melting point: 159 °C
- Ki (rat mGlu2 receptor): 140 nM

SMILES: Nc1ccc(-c2cn(-c3cc(-c4ccc(C(F)(F)F)cc4)cc(C4CC4)n3)cn2)cn1 [Example 54, 5-{1-[6-Cyclopropyl-4-(4-trifluoromethyl-phenyl)-pyridin-2-yl]-1H-imidazol-4-yl}-pyridin-2-ylamine]
- melting point: 233 to 235 °C
- Ki (rat mGlu2 receptor): 60 nM

SMILES: Cc1cc(-c2ccc(C(F)(F)F)cc2)cc(-n2ccnc2)n1 [Example 55, 2-Imidazol-1-yl-6-methyl-4-(4-trifluoromethyl-phenyl)-pyridine]
- melting point: 158 to 160 °C
- Ki (rat mGlu2 receptor): 96 nM

SMILES: Nc1ccc(-c2cn(-c3cc(C(F)(F)F)cc(-c4ccc(Cl)cc4)n3)cn2)cn1 [Example 56, 5-{1-[6-(4-Chloro-phenyl)-4-trifluoromethyl-pyridin-2-yl]-1H-imidazol-4-yl}-pyridin-2-ylamine]
- melting point: 196 °C (dec.)
- Ki (rat mGlu2 receptor): 9 nM

SMILES: FC(F)(F)c1ccc(-c2cc(C(F)(F)F)cc(-c3cccc(-c4cccnc4)c3)n2)cc1 [Example 59, 2-(3-Pyridin-3-yl-phenyl)-4-trifluoromethyl-6-(4-trifluoromethyl-phenyl)-pyridine]
- melting point: 164 to 166 °C
- Ki (rat mGlu2 receptor): 58.3 nM

SMILES: Nc1ccc(-c2cccc(-c3cc(C(F)(F)F)cc(-c4ccc(C(F)(F)F)cc4)n3)c2)cn1 [Example 60, 5-{3-[4-Trifluoromethyl-6-(4-trifluoromethyl-phenyl)-pyridin-2-yl]-phenyl}-pyridin-2-ylamine]
- melting point: 170 to 172 °C
- Ki (rat mGlu2 receptor): 32 nM

SMILES: Cc1cc(-c2ccc(C(F)(F)F)cc2)cc(-c2cccc(-c3cccnc3)c2)n1 [Example 61, 2-Methyl-6-(3-pyridin-3-yl-phenyl)-4-(4-trifluoromethyl-phenyl)-pyridine]
- melting point: 89 to 106 °C
- Ki (rat mGlu2 receptor): 13 nM

SMILES: Cc1cc(-c2ccc(C(F)(F)F)cc2)cc(-c2cccc(-c3ccc(N)nc3)c2)n1 [Example 62, 5-{3-[6-Methyl-4-(4-trifluoromethyl-phenyl)-pyridin-2-yl]-phenyl}-pyridin-2-ylamine]
- melting point: 68 to 90 °C
- Ki (rat mGlu2 receptor): 3 nM

SMILES: FC(F)(F)c1ccc(-c2cc(-c3cccc(-c4cccnc4)c3)nc(C3CC3)c2)cc1 [Example 63, 2-Cyclopropyl-6-(3-pyridin-3-yl-phenyl)-4-(4-trifluoromethyl-phenyl)-pyridine]
- melting point: 100 to 104 °C
- Ki (rat mGlu2 receptor): 29 nM

SMILES: Nc1ccc(-c2cn(-c3cc(C(F)(F)F)cc(-c4ccc(C(F)(F)F)cc4)n3)cn2)cn1 [Example 65, 5-{1-[4-Trifluoromethyl-6-(4-trifluoromethyl-phenyl)-pyridin-2-yl]-1H-imidazol-4-yl}-pyridin-2-ylamine]
- melting point: 245 to 247 °C
- Ki (rat mGlu2 receptor): 6 nM

SMILES: Cc1cc(-c2ccc(C(F)(F)F)cc2)cc(-c2cccc(-c3cnc(N)nc3)c2)n1 [Example 70, 5-{3-[6-Methyl-4-(4-trifluoromethyl-phenyl)-pyridin-2-yl]-phenyl}-pyrimidin-2-ylamine]
- melting point: 215 to 217 °C
- Ki (rat mGlu2 receptor): 44 nM

SMILES: Cc1cc(-c2ccc(C(F)(F)F)cc2)cc(-c2cccc(-c3ccc(N)nc3)n2)n1 [Example 71, 6-Methyl-4-(4-trifluoromethyl-phenyl)-[2,2′;6′,3″]terpyridin-6″-ylamine]
- melting point: 208 to 211 °C
- Ki (rat mGlu2 receptor): 1 nM

SMILES: Cc1cc(-c2ccc(C(F)(F)F)cc2)cc(-c2cccc(-c3cnc(N)nc3)n2)n1 [Example 72, 5-[6′-Methyl-4′-(4-trifluoromethyl-phenyl)-[2,2′]bipyridinyl-6-yl]-pyrimidin-2-ylamine]
- melting point: 219 to 222 °C
- Ki (rat mGlu2 receptor): 56 nM

SMILES: Cc1cc(-c2ccc(C(F)(F)F)cc2)cc(-c2cccc(-c3ccc(S(N)(=O)=O)cc3)n2)n1 [Example 73, 4-[6′-Methyl-4′-(4-trifluoromethyl-phenyl)-[2,2′]bipyridinyl-6-yl]-benzenesulfonamide]
- melting point: 215 to 227 °C
- Ki (rat mGlu2 receptor): 19 nM

SMILES: Nc1ccc(-c2cc(-c3cc(C(F)(F)F)cc(-c4ccc(C(F)(F)F)cc4)n3)ccn2)cn1 [Example 74, 4-Trifluoromethyl-6-(4-trifluoromethyl-phenyl)-[2,4′;2′,3″]terpyridin-6″-ylamine]
- melting point: 194 to 196 °C
- Ki (rat mGlu2 receptor): 10 nM

SMILES: CCOc1cc(-c2cc(C(F)(F)F)nc(-c3nc(-c4ccc(N)nc4)no3)n2)ccc1C(F)(F)F [Example 90, 5-{5-[4-(3-Ethoxy-4-trifluoromethyl-phenyl)-6-trifluoromethyl-pyrimidin-2-yl]-[1,2,4]oxadiazol-3-yl}-pyridin-2-ylamine]
- melting point: 216 °C
- Ki (rat mGlu2 receptor): 55 nM

SMILES: OCc1ccc(-c2cccc(-c3nc(-c4ccc(C(F)(F)F)cc4)cc(C(F)(F)F)n3)c2)cc1 [Example 114, {3′-[4-Trifluoromethyl-6-(4-trifluoromethyl-phenyl)-pyrimidin-2-yl]-biphenyl-4-yl}-methanol]
- melting point: 171 °C
- Ki (rat mGlu2 receptor): 6 nM
